The results in this text go back to US8241607B2, “Use of fructose-based compounds for the diagnosis of cancer” (priority 2005, dated 2012).

One experiment relates to MAPK pathway. In words: Western blot of MAPK pathway in PANC-1 cells. It counts as cell-based. The note with it: 5.5 mM sugar, 48 h. How it is done: FIG. 23 depicts Western blot analysis examining MAPK pathway expression in accordance with an embodiment of the present invention. PANC-1 pancreatic cancer cells were incubated in 2 mM glucose, 5.5 mM glucose or 5.5 mM fructose for 48 hours, after which Western blot analysis on total protein lysates was employed to examine phosphorylated MEK (pMEK), pRSK, and pCREB, and corresponding total MEK, RSK, and CREB levels.
Several signal transduction pathways may be involved in fructose-mediated pancreatic cancer growth but given the importance of the MAPK pathway in proliferation, the inventors believed that MAPK was involved. In the MAPK pathway, MEK mediated phosphorylation of the p44/42 MAP kinase (ERK) is the first step in this cascade, which results in phosphorylation of p90^Rsk, leading to transcriptional activation of CREB, and AP1, activating gene transcription and promoting cellular growth. The inventors employed Western blot analysis to examine MAPK pathway expression in pancreatic cancer cells incubated in 2 mM glucose, 5.5 mM glucose, and 5.5 mM fructose for 48 hours. Levels of the active phosphorylated proteins, pERK, pRSK, and pMEK were normalized to total ERK, RSK, and MEK levels respectively, and compared between the fructose-, and glucose-treated PANC-1 cells.
Background: In western blotting, separated proteins are transferred to a membrane and probed.

For another experiment, the system named is AP-1. In words: AP-1 probe binding assay on nuclear extracts of PANC-1 cells. Type of experiment: cell-based. To be noted: 5.5 mM fructose, 48 h. Here is the method:
FIG. 24 depicts luciferase activity of PANC-1 cells and primary culture of surgically resected pancreatic tumor cells in accordance with an embodiment of the present invention. PANC-1 pancreatic cancer cells and a primary culture of a surgically resected pancreatic tumor were incubated in 2 mM glucose, 5.5 mM glucose or 5.5 mM fructose for 48 h, after which nuclear extracts were incubated with a biotinylated AP-1 probe, and detected by an antibody-linked colorimetric method. *, p<0.01
In separate experiments PANC-1 cells, and primary cultures of surgically resected pancreatic tumors were incubated in 2 mM glucose, or 5.5 mM glucose or 5.5 mM fructose for 48 h, after which nuclear extracts were incubated with a biotinylated AP-1 probe in binding buffer. AP-1/AP1 probe complexes were next conjugated to a streptavidin-coated assay plate and detected using an AP-1 specific antibody, followed by binding of a horseradish-peroxidase conjugated secondary antibody, and detection by a colorimetric reagent.

In the case of `O=C(CO)[C@@H](O)[C@H](O)[C@H](O)CO` [fructose], in the experiment on MAPK pathway, the pERK expression result was “highest”, the pMEK expression result is “highest” and the pRSK expression entry was “highest”. The “AP-1 luciferase reporter activity higher than in 5.5 mM glucose” value with AP-1 is given as “approximately 40%”.
